According to US8604046B2, “Substituted piperidine spiro pyrrolidinone and piperidinone, preparation and therapeutic use thereof” (Sanofi, priority 2008, dated 2013):

Key:
rhesus H3 receptor [1] = molecular target: T1, rhesus H3 receptor (Macaca mulatta, UniProt Q865E1); test: Rhesus H3 [3H]-methylhistamine radioligand binding assay; parameters: species or system rhesus monkey (Macacca Mulatta); settings: [3H]-Methylhistamine 2 nM, rhesus H3 membranes, WGA SPA beads, Cheng-Prusoff
Procedure: (§1) Rhesus H3 membranes were prepared from the Flp-In T-REx 293 Cell Line (Invitrogen) stably transfected with pcDNA5/FRT/TO (Invitrogen) containing the rhesus monkey (Macacca Mulatta) 445 amino acid H3 receptor. (Genbank #AY231164). Stably transfected cultures were amplified in tissue culture flasks by standard tissue culture methods and induced to express rhesus H3 by exposure to 500 ng/ml tetracycline (Cellgro) for 24 hours. After induction, cells were dissociated from flasks utilizing Cell Stripper (Cellgro). Cells were centrifuged (1K×g, 5 min) and pellet frozen in an ethanol-dry ice bath to disrupt cell membranes. Frozen cell pellet was re-suspended in 5 mM HEPES (pH 7.4, Invitrogen) at 10 ml/1000 cm2 of harvested cells. The cell suspension was drawn through an 18 gauge needle (2-3×) followed by a 23 gauge needle (2-3×) to further disrupt cell membranes. The cell suspension was centrifuged (40K×g, 30 min). Cell membrane pellet was re-suspended in 5 mM HEPES (pH 7.4, Invitrogen) at a final protein concentration of 10 mg/ml. Rhesus H3 membranes were stored under liquid nitrogen prior to use in [3H]-Methylhistamine and GTP S radioligand binding assays.
Rhesus H3 radioligand binding assay was performed using rhesus H3 receptor membranes (prepared as described above), [3H]-Methylhistamine (Perkin Elmer) and WGA SPA beads (wheat germ agglutinin scintillation proximity assay) beads (Amersham). The assay was performed in 96-well Opti-Plates (Packard). Each reaction contained 50 μl rhesus H3 membranes (20-30 μg total protein), 50 μl WGA SPA beads (0.1 μg) and 50 μl of 83 Ci/mmol [^3H]-Methylhistamine (final concentration 2 nM) and 50 μl of tested compound. The compounds of this invention and/or vehicle were diluted with binding buffer from 10 mM DMSO stocks. Assay plates were sealed with TopSeal (Perkin Elmer) and mixed on shaker (25° C., 1 hour). Assay plates were read on TopCount scintillation counter (Packard). Results were analyzed by Hill transformation and Ki values were determined by Cheng-Prusoff equation.

rhesus H3 receptor [2] = molecular target: T1, rhesus H3 receptor; test: GTPγS radioligand binding assay, inhibition of rhesus H3 constitutive functional activity (inverse agonism); assay type: biochemical, rhesus monkey (Macacca Mulatta); parameters: concentration or dose not given beside the values; settings: rhesus H3 cell membranes, relative to basal levels
Procedure: as §1

T1 sequence (Q865E1 1-445): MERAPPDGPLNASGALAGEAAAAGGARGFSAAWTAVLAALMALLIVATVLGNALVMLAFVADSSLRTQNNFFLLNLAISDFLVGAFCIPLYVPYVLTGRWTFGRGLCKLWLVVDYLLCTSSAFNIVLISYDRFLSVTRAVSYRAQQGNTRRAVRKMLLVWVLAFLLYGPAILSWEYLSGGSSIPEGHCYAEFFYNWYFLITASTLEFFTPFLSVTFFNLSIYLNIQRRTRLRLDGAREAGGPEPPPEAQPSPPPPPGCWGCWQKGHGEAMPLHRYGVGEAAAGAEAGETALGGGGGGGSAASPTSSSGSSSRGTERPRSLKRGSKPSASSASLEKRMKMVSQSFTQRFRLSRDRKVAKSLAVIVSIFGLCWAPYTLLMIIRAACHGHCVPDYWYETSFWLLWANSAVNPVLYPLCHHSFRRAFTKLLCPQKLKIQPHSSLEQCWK

Compound | Ki (rhesus H3 receptor [1]) | Inverse Agonism: % inhibition of Basal GTPγS binding in Rhesus H3 (rhesus H3 receptor [2])
C[C@H]1CCCN1[C@H]1CCN(c2ccc(N3CCC4(CCN(C(=O)Cc5ccccc5)CC4)C3=O)c(C(F)(F)F)c2)C1 [Example 60, 2-[4-((2S,3′S)-2-Methyl-[1,3′]bipyrrolidinyl-1′-yl)-2-trifluoromethyl-phenyl]-8-phenylacetyl-2,8-diaza-spiro[4.5]decan-1-one] | 144 nM | −19%
C[C@H]1CCCN1C1CCN(c2ccc(N3CCC4(CCN(C(=O)c5ccc(F)cc5)CC4)C3=O)cc2)CC1 [Example 51, 8-(4-Fluoro-benzoyl)-2-{4-[4-(2S-2-methyl-pyrrolidin-1-yl)-piperidin-1-yl]-phenyl}-2,8-diaza-spiro[4.5]decan-1-one] | 0.08 nM | −17%
Cc1cc(N2CC[C@@H](N3CCC[C@H]3C)C2)ccc1N1CCC2(CCN(CC3CCCC3)CC2)C1=O [Example 11, 8-Cyclopentylmethyl-2-[2-methyl-4-((2R,3′R)-2-methyl-[1,3′]bipyrrolidinyl-1′-l)-phenyl]-2,8-diaza-spiro[4.5]decan-1-one] | 22 nM | −29%
C[C@H]1CCCN1[C@H]1CCN(c2ccc(N3CCC4(CCNCC4)C3=O)c(C(F)(F)F)c2)C1.Cl [Example 69, 2-[4-((2S,3′S)-2-Methyl-[1,3′]bipyrrolidinyl-1′-yl)-2-trifluoromethyl-phenyl]-2,8-diaza-spiro[4.5]decan-1-one Hydrochloride] | 0.09 nM | −28%
Cc1cc(N2CC[C@@H](N3CCC[C@@H]3C)C2)ccc1N1CCC2(CCN(CC3CCCC3)CC2)C1=O [Example 12, 8-Cyclopentylmethyl-2-[2-methyl-4-((2S,3′R)-2-methyl-[1,3′]bipyrrolidinyl-1′-l)-phenyl]-2,8-diaza-spiro[4.5]decan-1-one] | 0.8 nM | −20%
Cc1cc(N2CC[C@H](N3CCC[C@@H]3C)C2)ccc1N1CCC2(CCN(C(=O)c3ccc(OC(F)(F)F)cc3)CC2)C1=O [Example 19, 2-[2-Methyl-4-((2S,3′S)-2-methyl-[1,3′]bipyrrolidinyl-1′-yl)-phenyl]-8-(4-trifluoromethoxy-benzoyl)-2,8-diaza-spiro[4.5]decan-1-one] | 1.4 nM | −19%
Cc1cc(N2CC[C@H](N3CCC[C@@H]3C)C2)ccc1N1CCC2(CCN(C(=O)OC(C)(C)C)CC2)C1=O [Example 4, 2-[2-Methyl-4-((2S,3′S)-2-methyl-[1,3′]bipyrrolidinyl-1′-yl)-phenyl]-1-oxo-2,8-diaza-spiro[4.5]decane-8-carboxylic acid tert-butyl ester] | 43 nM | −31%
C[C@H]1CCCCN1[C@H]1CCN(c2ccc(N3CCC4(CCN(CC5CCOCC5)CC4)C3=O)c(F)c2)C1 [Example 59, 2-{2-Fluoro-4-[3-((2S,3′S)-2-methyl-piperidin-1-yl)-pyrrolidin-1-yl]-phenyl}-8-(tetrahydro-pyran-4-ylmethyl)-2,8-diaza-spiro[4.5]decan-1-one] | 4.6 nM | −19%
C[C@H]1CCCN1C1CCN(c2ccc(N3CCC4(CCN(CC5CC5)CC4)C3=O)c(F)c2)CC1 [Example 56, 8-Cyclopropylmethyl-2-{2-fluoro-4-[4-(2S-2-methyl-pyrrolidin-1-yl)-piperidin-1-yl]-phenyl}-2,8-diaza-spiro[4.5]decan-1-one] | 0.04 nM | −23%
C[C@H]1CCCN1[C@H]1CCN(c2ccc(N3CCCC4(CCN(C(=O)C5CCOCC5)CC4)C3=O)c(F)c2)C1 [Example 31, 2-[2-Fluoro-4-((2S,3′S)-2-methyl-[1,3′]bipyrrolidinyl-1′-yl)-phenyl]-9-(tetrahydro-pyran-4-carbonyl)-2,9-diaza-spiro[5.5]undecan-1-one] | 0.4 nM | −19%
